Source: patent US20240228499A1, “MASP-2 INHIBITORS AND METHODS OF USE” (Omeros Corporation, priority 2022, published 2024)

Experiments:
human a-thrombin = biological target: T1, human a-thrombin (Homo sapiens, UniProt P00734); assay: Enzymatic assay for thrombin (fluorogenic peptide substrate Boc-VPR-AMC); assay type: biochemical; settings: room temperature, 20 mM Hepes pH 7.4, 20 min
T1 construct: enzyme (human a-thrombin (BioPharm® Lab.)); purchased BioPharm Lab
Procedure, shortened: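 Human α-thrombin was incubated with serially diluted compound and fluorogenic substrate Boc-VPR-AMC in 20 mM Hepes pH 7.4, 140 mM NaCl, 0.1% Tween 20 at room temperature. The reaction was stopped after 20 min with 0.1 M acetic acid and fluorescence read. % activity was normalized to DMSO and no-enzyme controls, and IC50 was taken as equivalent to Ki.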

[1] = test system: Lectin Pathway Activation (LPA) in human serum; assay: Lectin pathway activation (LPA) assay in human serum, C4 deposition on mannan-coated plate; assay type: biochemical; settings: 1% pooled human serum, 55 minutes, room temperature
Method: A Microtiter ELISA plate (Nunc-Maxi Sorp; Sigma-Aldrich®, USA) was coated with mannan sourced from Saccharomyces cerevisiae (Sigma-Aldrich®, USA) in a coating buffer comprising 33.3 mM Na2CO3 and 166.67 mM NaHCO3. The plates were incubated at room temperature overnight. Subsequently, the plates were blocked with a 5% bovine serum albumin solution (Sigma-Aldrich®, USA) prepared in PBST for 2 hours at room temperature with agitation. Varying concentrations of MASP-2 inhibitors were dispensed onto the empty plate.
To perform the assay, pooled human serum was diluted to 1% in a solution of 20 mM HEPES (pH=7.4), 140 mM NaCl, and 1 mM MgCl2. Then, 40 μl of the diluted human serum was dispensed into each well of the Microtiter ELISA plate and incubated for 55 minutes at room temperature. The C4 deposition on the mannan-coated surface was stopped using an EDTA stop solution (20 mM HEPES, pH=7.4, 140 mM NaCl, and 150 mM EDTA). Subsequently, rabbit anti-Human C4c antibody (Agilent Technologies, USA) prepared in PBST was added, and the plates were incubated at room temperature for 30 minutes with agitation, then washed with PBST, and Goat anti-rabbit IgG(H+L) HRP-conjugated (Southern Biotech®, USA) was added. The plates were again incubated at room temperature for 30 minutes with agitation, and then were washed with PBST. Following this, the Amplex® UltraRed® (Thermo Fischer Sci, USA) substrate solution was added for 16 minutes, followed by the addition of the Amplex® UltraRed® stop solution. The plates' fluorescence was measured using an i3× microplate reader (Molecular Devices, USA) with excitation at 550 nm and emission at 580 nm. The raw data generated from the plate reader was exported to GraphPad Prism® (version 10.0.3), and the non-linear regression curve was generated using the 4-parameter logistic fit equation. All data are reported as pIC50 with a 95% confidence interval.

MASP-2 (CCP1-CCP2-SP) = biological target: T2, MASP-2 (CCP1-CCP2-SP) (Homo sapiens, UniProt O00187); assay: Enzymatic assay for MASP-2 inhibitory activity (fluorogenic substrate); assay type: biochemical; settings: room temperature, 20 mM Hepes pH 7.4, 20 min
T2 construct: 15 μL of Enzyme MASP-2 (CCP1-CCP2-SP) in Assay Buffer
T2 sequence (O00187 287-686 limits assumed): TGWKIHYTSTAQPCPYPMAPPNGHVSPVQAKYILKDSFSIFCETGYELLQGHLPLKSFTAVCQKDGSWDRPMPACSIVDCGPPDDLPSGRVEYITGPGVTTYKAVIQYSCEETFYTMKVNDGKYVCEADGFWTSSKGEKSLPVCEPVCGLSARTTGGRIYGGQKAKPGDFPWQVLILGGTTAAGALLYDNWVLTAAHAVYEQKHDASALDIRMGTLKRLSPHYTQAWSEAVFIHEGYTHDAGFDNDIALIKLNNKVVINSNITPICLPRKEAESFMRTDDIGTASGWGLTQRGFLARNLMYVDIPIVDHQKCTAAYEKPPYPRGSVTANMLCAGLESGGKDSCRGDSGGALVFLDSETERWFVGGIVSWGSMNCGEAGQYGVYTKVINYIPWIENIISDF
Procedure, shortened: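 Human MASP-2 CCP1-CCP2-SP construct with a C2-cleavage-site fluorogenic substrate in 20 mM HEPES pH 7.4, 140 mM NaCl, 0.1% Tween 20, 20 min at room temperature before acetic acid stop. Activity normalised to DMSO and no-enzyme controls; IC50 taken as equivalent to Ki under linear conditions.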

severe IgA nephropathy = settings: cited from earlier work
HSCT-TMA = settings: once-weekly treatment, HSCT-TMA patients; cited from earlier work
[2] = test system: microvascular endothelial cell injury; settings: tissue culture model; cited from earlier work

`Cc1ccc(F)c(CNc2cnc3n(c2=O)[C@H](C(=O)NCc2cc4c(s2)CNC4)CC3)c1` [Compound 50, (S)—N-((5,6-dihydro-4H-thieno[2,3-C]pyrrol-2-yl)methyl)-3-((2-fluoro-5-methylbenzyl)amino)-4-oxo-4,6,7,8-tetrahydropyrrolo[1,2-a]pyrimidine-6-carboxamide, di-trifluoroacetate] showed a Ki (human a-thrombin) of 2500 to 10000 nM, an IC50 [1] of less than 500 nM and a Ki (MASP-2 (CCP1-CCP2-SP)) of less than 500 nM.

`Cc1nc(N)ccc1CNC(=O)[C@@H]1CCc2ncc(NCc3cccc(F)c3)c(=O)n21` [Compound 53, (S)—N-((6-amino-2-methylpyridin-3-yl)methyl)-3-((3-fluorobenzyl)amino)-4-oxo-4,6,7,8-tetrahydropyrrolo[1,2-a]pyrimidine-6-carboxamide] showed a Ki (human a-thrombin) of 500 to 2500 nM, an IC50 [1] of less than 500 nM and a Ki (MASP-2 (CCP1-CCP2-SP)) of less than 500 nM.

Work on `Cc1ccccc1CNc1cnc2n(c1=O)[C@H](C(=O)NCc1ccc(N)nc1C)CC2` [Compound 54, (S)—N-((6-amino-2-methylpyridin-3-yl)methyl)-3-((2-methylbenzyl)amino)-4-oxo-4,6,7,8-tetrahydropyrrolo[1,2-a]pyrimidine-6-carboxamide] yielded a Ki (human a-thrombin) of 500 to 2500 nM, an IC50 [1] of less than 500 nM and a Ki (MASP-2 (CCP1-CCP2-SP)) of less than 500 nM.

Compound `Cc1cc(F)ccc1CNc1cnc2n(c1=O)[C@H](C(=O)NCc1ccc(N)nc1C)CC2` [Compound 62] has a Ki (human a-thrombin) of 2500 to 10000 nM, an IC50 [1] of less than 500 nM and a Ki (MASP-2 (CCP1-CCP2-SP)) of less than 500 nM.

`Cc1cc(C)cc(CNc2cnc3n(c2=O)[C@H](C(=O)N[C@H](C)c2ccc(N)nc2C)CC3)c1` [Compound 64, (S)-N-((R)-1-(6-amino-2-methylpyridin-3-yl)ethyl)-3-((3,5-dimethylbenzyl)amino)-4-oxo-4,6,7,8-tetrahydropyrrolo[1,2-a]pyrimidine-6-carboxamide] gave a Ki (human a-thrombin) of 10000 to 25000 nM, an IC50 [1] of less than 500 nM and a Ki (MASP-2 (CCP1-CCP2-SP)) of less than 500 nM.

`Cc1cc(Cl)cc(CNc2cnc3n(c2=O)[C@H](C(=O)NCc2cnc4c(c2)CNC4)CC3)c1` [Compound 65, (S)-3-((3-chloro-5-methylbenzyl)amino)-N-((6,7-dihydro-5H-pyrrolo[3,4-b]pyridin-3-yl)methyl)-4-oxo-4,6,7,8-tetrahydropyrrolo[1,2-a]pyrimidine-6-carboxamide, di-trifluoroacetate] showed a Ki (human a-thrombin) greater than 25000 nM, an IC50 [1] of less than 500 nM and a Ki (MASP-2 (CCP1-CCP2-SP)) of less than 500 nM.

In the case of `Cc1ccc(CNc2cnc3n(c2=O)[C@H](C(=O)NCc2ccc(N)nc2C)CC3)cc1C` [Compound 72, (S)-N-((6-amino-2-methylpyridin-3-yl)methyl)-3-((3,4-dimethylbenzyl)amino)-4-oxo-4,6,7,8-tetrahydropyrrolo[1,2-a]pyrimidine-6-carboxamide], the Ki (human a-thrombin) is reported as 500 to 2500 nM, the IC50 [1] is reported as less than 500 nM and the Ki (MASP-2 (CCP1-CCP2-SP)) is reported as less than 500 nM.

With `Cc1nc(N)ccc1CNC(=O)[C@@H]1CCc2ncc(NCc3cccc(OC(F)F)c3)c(=O)n21` [Compound 75, (S)-N-((6-amino-2-methylpyridin-3-yl)methyl)-3-((3-(difluoromethoxy)benzyl)amino)-4-oxo-4,6,7,8-tetrahydro-pyrrolo[1,2-a]pyrimidine-6-carboxamide] the Ki (human a-thrombin) was 500 to 2500 nM, the IC50 [1] was less than 500 nM and the Ki (MASP-2 (CCP1-CCP2-SP)) was less than 500 nM.

Compound `COc1cc(Cl)cc(CNc2cnc3n(c2=O)[C@H](C(=O)N[C@H](C)c2ccc(N)nc2)CC3)c1` [Compound 76, (S)-N-((R)-1-(6-aminopyridin-3-yl)ethyl)-3-((3-chloro-5-methoxybenzyl)amino)-4-oxo-4,6,7,8-tetrahydropyrrolo[1,2-a]pyrimidine-6-carboxamide] has a Ki (human a-thrombin) of 10000 to 25000 nM, an IC50 [1] of less than 500 nM and a Ki (MASP-2 (CCP1-CCP2-SP)) of less than 500 nM.

In the case of `Cc1cc(C)cc(CNc2cnc3n(c2=O)[C@H](C(=O)N[C@@H]2CCc4nc(N)ccc42)CC3)c1` [Compound 81, (S)—N—((R)-2-amino-6,7-dihydro-5H-cyclopenta[b]pyridin-5-yl)-3-((3,5-dimethylbenzyl)amino)-4-oxo-4,6,7,8-tetrahydropyrrolo[1,2-a]pyrimidine-6-carboxamide], the Ki (human a-thrombin) is reported as 500 to 2500 nM, the IC50 [1] is reported as less than 500 nM and the Ki (MASP-2 (CCP1-CCP2-SP)) is reported as less than 500 nM.

In the case of `Cc1cccc(CNc2cnc3n(c2=O)[C@H](C(=O)N[C@@H]2CCc4nc(N)ccc42)CC3)c1` [Compound 82, (S)—N—((R)-2-amino-6,7-dihydro-5H-cyclopenta[b]pyridin-5-yl)-3-((3-methylbenzyl)amino)-4-oxo-4,6,7,8-tetrahydropyrrolo[1,2-a]pyrimidine-6-carboxamide], the Ki (human a-thrombin) is reported as 500 to 2500 nM, the IC50 [1] is reported as less than 500 nM and the Ki (MASP-2 (CCP1-CCP2-SP)) is reported as less than 500 nM.

`N#CC1C2CC1C2CNc1cnc2n(c1=O)[C@H](C(=O)N[C@@H]1CCc3nc(N)ccc31)CC2` (stereo partly drawn) [Compound 86, (6S)—N—((R)-2-amino-6,7-dihydro-5H-cyclopenta[b]pyridin-5-yl)-3-(((4-cyanobicyclo[1.1.1]pentan-2-yl)methyl)amino)-4-oxo-4,6,7,8-tetrahydropyrrolo[1,2-a]pyrimidine-6-carboxamide] showed a Ki (human a-thrombin) greater than 25000 nM, an IC50 [1] of less than 500 nM and a Ki (MASP-2 (CCP1-CCP2-SP)) of less than 500 nM.

In the case of `N#Cc1cc(CNc2cnc3n(c2=O)[C@H](C(=O)N[C@@H]2CCc4nc(N)ccc42)CC3)cc(C(F)(F)F)c1` [Compound 90, (S)-N-((R)-2-amino-6,7-dihydro-5H-cyclopenta[b]pyridin-5-yl)-3-((3-cyano-5-(trifluoromethyl)benzyl)amino)-4-oxo-4,6,7,8-tetrahydropyrrolo[1,2-a]pyrimidine-6-carboxamide], the Ki (human a-thrombin) is reported as 500 to 2500 nM, the IC50 [1] is reported as less than 500 nM and the Ki (MASP-2 (CCP1-CCP2-SP)) is reported as less than 500 nM.

Work on `Cc1ccc(C)c(CNc2cnc3n(c2=O)[C@H](C(=O)N[C@@H]2CCc4nc(N)ccc42)CC3)c1` [Compound 94] yielded a Ki (human a-thrombin) of 500 to 2500 nM, an IC50 [1] of less than 500 nM and a Ki (MASP-2 (CCP1-CCP2-SP)) of less than 500 nM.

`Cc1ccc(F)c(CNc2cnc3n(c2=O)[C@H](C(=O)N[C@@H]2CCc4nc(N)ccc42)CC3)c1` [Compound 95] showed a Ki (human a-thrombin) of 500 to 2500 nM, an IC50 [1] of less than 500 nM and a Ki (MASP-2 (CCP1-CCP2-SP)) of less than 500 nM.

For `CS(=O)(=O)c1cccc(CNc2cnc3n(c2=O)[C@H](C(=O)N[C@@H]2CCc4nc(N)ccc42)CC3)c1` [Compound 97], the Ki (human a-thrombin) was 500 to 2500 nM, the IC50 [1] was less than 500 nM and the Ki (MASP-2 (CCP1-CCP2-SP)) was less than 500 nM.

In the case of `Nc1ccc2c(n1)CC[C@H]2NC(=O)[C@@H]1CCc2ncc(NCc3ccc4c(c3)COC4)c(=O)n21` [Compound 100], the Ki (human a-thrombin) is reported as 2500 to 10000 nM, the IC50 [1] is reported as less than 500 nM and the Ki (MASP-2 (CCP1-CCP2-SP)) is reported as less than 500 nM.

`Nc1ccc2c(n1)CC[C@H]2NC(=O)[C@@H]1CCc2ncc(NCc3cccc(C(F)(F)F)c3)c(=O)n21` [Compound 105] showed a Ki (human a-thrombin) of 2500 to 10000 nM, an IC50 [1] of less than 500 nM and a Ki (MASP-2 (CCP1-CCP2-SP)) of less than 500 nM.

For `Cc1cc(C)cc(CNc2cnc3n(c2=O)[C@H](C(=O)N[C@H](C)c2cc4c(s2)CNC4)CC3)c1` [Compound 106], the Ki (human a-thrombin) was greater than 25000 nM, the IC50 [1] was less than 500 nM and the Ki (MASP-2 (CCP1-CCP2-SP)) was less than 500 nM.

In the case of narsoplimab, the tolerability (severe IgA nephropathy; human, in vivo) is listed as “well tolerated”, the “urine protein excretion decrease from baseline” value (severe IgA nephropathy; once-weekly treatment, after 3 years of follow-up) is listed as 38% and the “annualized rate of kidney function decline” value (severe IgA nephropathy; once-weekly treatment, after 3 years of follow-up, matched external comparator group 8.6) is listed as 5.2 mL/min/yr. For the same compound, the “response rate based on improvement in laboratory TMA markers and clinical benefit” value (HSCT-TMA) was 61% and the “effect on HSCT-TMA plasma-mediated endothelial damage” value [2] was “reduce HSCT-TMA plasma-mediated endothelial damage”.
